Assay [1] concerns Male DBA/1 mice (CIA model). In words: CIA in mice, histology of heterotopic bone formation. The note with it: 30 mg/kg (lowest tested dose) once daily for 10 days, FIG. 9. The assay is classed as in vivo. The protocol:
CIA in mice is another very popular translational model to mimic human arthritis. […] Male DBA/1 mice were immunized by intradermal injection at the base of the tail with an emulsion of 200 μg of bCII in CFA containing 3 mg/ml Mycobacterium tuberculosis. Non-immunized mice served as the negative control of disease. Animals were monitored by visual inspection for appearance of peripheral edema. […] Upon onset, animals were recruited and randomized. Recruitment was given a cut-off at day 40. Upon recruitment, arthritis clinical score was assigned, and edema was measured via caliper. Mice were randomized into the following groups: vehicle, 30 mg/kg the form A of the sodium salt of (R)-4-(1-(6-(4-(trifluoromethyl)benzyl)-6-azaspiro[2.5]octane-5-carboxamido)cyclopropyl)benzoic acid, 60 mg/kg the form A of the sodium salt of (R)-4-(1-(6-(4-(trifluoromethyl)benzyl)-6-azaspiro[2.5]octane-5-carboxamido)cyclopropyl)benzoic acid and 60 mg/kg naproxen. Animals received the test drugs once daily for 10 days. Histology was performed as described for rats.

In assay [2] the test system is Sprague Dawley male rats (AIA model). In words: Adjuvant Induced Arthritis (AIA) in rats, histology of pathological bone apposition. It is filed as in vivo, rat. The note with it: 10 mg/kg orally once a day for 15 days, FIG. 10. An excerpt:
Adjuvant Induced Arthritis (AIA) in rats is a widely studied and accepted animal model of inflammatory arthritis driven by Tcells. In experimental autoimmune diseases, CFA mediated activation of the innate immune compartment is important not only by regulating the early induction phase, but also by providing a surplus of effector and regulator cells in the late phase. Also in this model it was possible to appreciate a relevant pathological apposition of new bone. This paradigm was used as a third model to further confirm the effect of the compound of the invention as an effective inhibitor of pathological heterotopic ossification.
Sprague Dawley male rats (Charles River) were immunized by intradermal injection at the base of the tail with 150 μl of complete Freund's adjuvant (CFA) containing 10 mg/ml of heat killed Mycobacterium tuberculosis (Chondrex code 7027) or with incomplete Freund's adjuvant (IFA) (sham n=10). Ten days after immunization arthritis developed in all animals, but not in the sham-group; edema and clinical scores were assessed and the animals were then randomized and assigned to treatment groups (n=9-12) as follows: vehicle, the compound of the invention 10 mg/kg or 30 mg/kg. The compound of the invention was administered orally once a day for 15 days. […]

Assay [3] deals with human osteoblasts from patients with Osteoarthritis. In words: Pathological osteoblast proliferation induced by IL-1β, MTT assay. The assay is classed as cell-based. The note with it: IL-1β 2 ng/ml; time course 24 h, 6, 9 and 14 days; low concentrations; FIG. 11. As to the method: Human osteoblasts were purified from material obtained from patients undergoing knee replacement. Trabecular bone cells were isolated by spontaneous outgrowth culture methods. Purified osteoblasts were stimulated with IL-1β 2 ng/ml. Osteoblast proliferation was studied by MTT analysis in time course experiments (24 h, 6, 9, and 14 days). The form A of the sodium salt of (R)-4-(1-(6-(4-(trifluoromethyl)benzyl)-6-azaspiro[2.5]octane-5-carboxamido)cyclopropyl)benzoic acid resulted to be extremely effective in preventing in vitro osteoblast proliferation stimulated by IL1b.
This model has been performed to understand if the compound of the invention could correct the pathological hyperproliferation of osteoblasts taken from patients suffering from degenerative pathologies eventually resulting in a total joint replacement surgical procedure.
Trabecular bone of the tibial plateau was obtained from patients with Osteoarthritis (OA) undergoing joint replacement surgery. This material was purchased from Alphenyx (Marseille, France). […] The cell proliferation was analysed in a time course protocol by MTT assay. […] MTT was a tetrazolium salt especially useful to quantify living metabolically active cells. […] The plate was then read at λ=540 nm. […]
In general terms: Formazan colour is commonly taken as a measure of viable cells.

Each structure is given as a SMILES string.

On to `O=C([O-])c1ccc(C2(NC(=O)[C@H]3CC4(CCN3Cc3ccc(C(F)(F)F)cc3)CC4)CC2)cc1.[Na+]` [Form A, sodium (R)-4-(1-(6-(4-(trifluoromethyl)benzyl)-6-azaspiro[2.5]octane-5-carboxamido)cyclopropyl)benzoate], for which, in assay [1], the “pathological bone formation (histology)” value is recorded as “completely abrogated in almost all animals”. Moreover, the “pathological bone apposition (histology)” value in assay [2] was “completely abrogated the pathological bone apposition in almost all animals”. Besides, in assay [3], the “osteoblast proliferation (MTT)” value is “able to dose-dependently counteract osteoblast proliferation”.

For the origin of these results see patent US12433875B2, “(R)-4-(1-(6-(4-(trifluoromethyl)benzyl)-6-azaspiro[2.5]octane-5-carboxamido)-cyclopropyl) benzoic acid or its salt also in polymorphic form a for use in the prevention of heterotopic ossification” (ROTTAPHARM BIOTECH S.R.L., priority 2019, dated 2025).
